Source: patent publication US10815238B2, “Antimicrobial compounds and methods of making and using the same” (BIOVERSYS AG, priority 2013, dated 2020)

Test system: Eschericia coli (E. coli) strain ATCC25922
Assay: Standard microdilution assay, MIC against E. coli ATCC25922
Type: cell-based
Settings: Escherichia coli; E. coli strain ATCC25922, standard microdilution assay; cutoff 16 micrograms/mL; read-out: MIC E. Coli
How it was run: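 MIC determined by broth microdilution following CLSI protocols, with reference strains run in parallel for quality control. Activity scored +/− at a cutoff of 16 micrograms/mL.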

SMILES	MIC [µg/mL]
C[C@H](N)CCCc1cc(Cl)c(F)c(-c2cc3cn(-c4ccc([C@@H](NCCCNC(=N)N)C(N)=O)cc4)c(=O)nc3[nH]2)c1 [Compound 32]	< 16
COc1ccc(Cn2cc(CNCc3ccc(-n4cc5cc[nH]c5nc4=O)cc3)nn2)cc1 [Compound 131]	> 16
C[C@H](N)CCCc1cc(Cl)c(F)c(-c2cc3cn(-c4ccc([C@H](CC5=CCCN(C)C5)NCCCNC(=N)N)cc4)c(=O)nc3[nH]2)c1 [Compound 105]	< 16
C[C@H](N)CCCc1cc(OC(F)(F)F)c(F)c(-c2cc3cn(-c4ccc([C@H](C)NCC[C@H](CCC#N)NC(=N)N)cc4)c(=O)nc3[nH]2)c1 [Compound 315]	< 16
C=CC[C@@H](NCCCNC(=N)N)c1ccc(-n2cc3cc(-c4cc(CCC[C@H](C)N)cc(SC(F)(F)F)c4)[nH]c3nc2=O)cc1 [Compound 1]	< 16
C[C@H](N)CCCc1cc(Cl)c(F)c(-c2cc3cn(-c4ccc([C@H](C)N[C@H](C)CCNC(=N)N)cc4)c(=O)nc3[nH]2)c1 [Compound 225]	< 16
CC[C@H](CCNCc1ccc(-n2cc3cc(-c4cc(CCC[C@H](C)N)cc(Cl)c4F)[nH]c3nc2=O)cc1)NC(=N)N [Compound 198]	< 16
C[C@H](N)CCCc1cc(Cl)c(F)c(-c2cc3cn(-c4ccc(CNCc5c[nH]nn5)cc4)c(=O)nc3[nH]2)c1 [Compound 119]	> 16
C[C@H](N)CCCc1cc(Cl)cc(-c2cc3cn(-c4ccc([C@H](C)NCCCNC(=N)N)cc4)c(=O)nc3[nH]2)c1 [Compound 27]	< 16
C[C@H](N)CCCc1cc(Cl)c(F)c(-c2cc3cn(-c4ccc([C@@H](N)CCCCNC(=N)N)cc4)c(=O)nc3[nH]2)c1 [Compound 118]	< 16
C[C@H](N)CCCc1cc(Cl)c(F)c(-c2cc3cn(-c4ccc([C@H](C)NCC[C@H](C)NC(=N)N)cc4)c(=O)nc3[nH]2)c1 [Compound 222]	< 16
C[C@H](NCCCNC(=N)N)c1ccc(-n2cc3cc(-c4cc(SC(F)(F)F)cc([C@H](O)CC[C@H](N)CO)c4)[nH]c3nc2=O)cc1 [Compound 111]	< 16
C[C@H](NCCCNC(=N)N)c1ccc(-n2cc3cc(-c4cc(CCC[C@@H](N)COC(=O)NCc5ccccc5)cc(Cl)c4F)[nH]c3nc2=O)cc1 [Compound 306]	< 16
C[C@H](N)CCCc1cc(Cl)c(F)c(-c2cc3cn(-c4ccc([C@H](C)NCCC(CC(O)CO)NC(=N)N)cc4)c(=O)nc3[nH]2)c1 (some centres unmarked) [Compound 270]	< 16
C[C@H](N)CCCc1cc(-c2cc3cn(-c4ccc([C@H](C)NCCCNC(=N)N)cc4)c(=O)nc3[nH]2)c(F)cc1Cl [Compound 10]	< 16
C=CC[C@H](CCNCc1ccc(-n2cc3cc(-c4cc(CCC[C@H](C)N)cc(Cl)c4F)[nH]c3nc2=O)cc1)NC(=N)N [Compound 207]	< 16

The remaining lines, values ahead:

MIC [µg/mL]	SMILES
> 16	COc1ccc(Cn2cc(CNCc3ccc(-n4cc5cc(-c6cc(CCC[C@H](C)N)cc(SC(F)(F)F)c6)[nH]c5nc4=O)cc3)nn2)cc1 [Compound 122]
< 16	C[C@H](N)CCCc1cc(Cl)c(F)c(C#Cc2cn(-c3ccc([C@H](C)NCCCNC(=N)N)cc3)c(=O)nc2N)c1 [Compound 241]
< 16	COc1ccc([C@H](NCCCNC(=N)N)c2ccc(-n3cc4cc(-c5cc(CCC[C@H](C)N)cc(C(F)(F)F)c5)[nH]c4nc3=O)cc2)cc1 [Compound 17]
< 16	C=C[C@@H](N)CC[C@@H](O)c1cc(SC(F)(F)F)cc(-c2cc3cn(-c4ccc([C@H](C)NCCCNC(=N)N)cc4)c(=O)nc3[nH]2)c1 [Compound 79]
< 16	C=C[C@H](CCN[C@@H](C)c1ccc(-n2cc3cc(-c4cc(CCC[C@H](C)N)cc(Cl)c4F)[nH]c3nc2=O)cc1)NC(=N)N [Compound 236]
< 16	C[C@H](N)CCCc1cc(Cl)c(F)c(-c2cc3cn(-c4ccc(CN[C@@H](C)CCNC(=N)N)cc4)c(=O)nc3[nH]2)c1 [Compound 195]
< 16	C[C@H](N)CCCc1cc(-c2cc3cn(-c4ccc([C@@H](NCCCNC(=N)N)C(=O)N5CCNCC5)cc4)c(=O)nc3[nH]2)cc(C(F)(F)F)c1 [Compound 13]
